Values of other authors as cited in patent US20240246943A1, “MULTIFACETED APPROACH TO NOVEL INTERLEUKIN-6 INHIBITORS” (UNIVERSITY OF FLORIDA RESEARCH FOUNDATION, INCORPORATED, priority 2021, published 2024).

Biological target: T1, extracellular domain of glycoprotein 130 (gp130) (Homo sapiens, UniProt P40189)
T1 sequence (P40189 23-619 limits assumed): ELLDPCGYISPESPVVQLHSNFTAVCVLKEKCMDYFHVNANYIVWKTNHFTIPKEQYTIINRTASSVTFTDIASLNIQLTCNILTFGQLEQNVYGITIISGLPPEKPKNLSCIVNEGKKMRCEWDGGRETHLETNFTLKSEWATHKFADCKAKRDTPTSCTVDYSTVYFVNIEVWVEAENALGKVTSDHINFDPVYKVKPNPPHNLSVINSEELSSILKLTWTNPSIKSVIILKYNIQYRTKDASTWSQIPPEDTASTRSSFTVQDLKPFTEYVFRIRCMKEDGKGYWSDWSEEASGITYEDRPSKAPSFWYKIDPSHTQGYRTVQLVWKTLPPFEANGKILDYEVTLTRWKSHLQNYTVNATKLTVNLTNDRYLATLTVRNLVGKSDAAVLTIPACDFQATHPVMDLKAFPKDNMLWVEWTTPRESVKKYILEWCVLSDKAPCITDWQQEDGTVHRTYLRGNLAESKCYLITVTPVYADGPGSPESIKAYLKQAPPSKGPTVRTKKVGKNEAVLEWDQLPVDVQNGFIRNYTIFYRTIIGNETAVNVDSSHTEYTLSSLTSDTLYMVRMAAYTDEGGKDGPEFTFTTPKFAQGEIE
Details: binding to extracellular domain of gp130; literature reference 6; cited from earlier work

In the case of `CCCCC1=C(C)C(=O)[C@](C)(CN2c3ccccc3[C@]3(O)CCOC23)C1=O` (stereo partly shown) [MDL-A, Madindoline A], the Kd is given as 288 µM.
